How the values were obtained:
[1] = test system: microsomes of human keratinocytes; experiment: Transport of glucids (glucose), direct treatment of isolated microsomes; type: biochemical; details: for Capture of [^3H]3-O-MG: Phloretin 0.25 mM
Method: 7.1—Assessment of the Rate of Transport of Macromolecules (Glucids, Lipids and Proteins) in a System of Isolated Microsomes. Direct Effect of the BB Product on Isolated Microsomes: The microsomes of human keratinocytes form a membrane fraction obtained by high-speed differential centrifugation of a cell homogenate. This preparation of microsomes requires the addition of exogenous cofactors such as NADPH. 7.1.1—Transport of Glucids (Glucose) The assay was performed in triplicate after the direct treatment of microsomes. • Charge 1: negative control not receiving any product. • Charge 2: positive control (0.25 mM phloretin) • Charges 3-5: treated with the investigated product (3 concentrations) • Charges 6-8: treated with 0.25 mM phloretin and with the investigated product (3 concentrations) The obtained microsomes from human keratinocytes in culture were washed 3 times with a PBS buffer without glucose then pre-incubated in 1 ml of the same buffer for 30 minutes at 37° C. Subsequently, this solution was discarded and the microsomes placed into the glucose-free PBS buffer containing 3-0-Methyl glucose (MG) and [^3H] 3-0-MG with stirring in a water-bath at 37° C. The capture of 3-0-MG is stopped by addition of 1 ml of cold PBS containing cytochalasine B. The kinetics of incubation was performed between 30 and 120 seconds. The microsomes were further rinsed 2 times with PBS, then dissolved in NaOH (1M) at 4° C., over night. The radioactivity was determined with a scintillation counter. The treatments of microsomes with the BB product alone or in the presence of phloretin were carried out at the same time as the introduction of [3H] 3-0-MG into the incubation medium. The protein assay was performed following the BRADFORD method. The increase in absorbance at 595 nm, determined with spectrophotometer, is proportional to the protein concentration.

[2] = test system: normal human keratinocytes; experiment: Transport of glucides (glucose), normal human keratinocytes; type: cell-based; details: for Capture of [^3H]3-O-MG: Phloretin 0.25 mM
Method: The obtained microsomes from human keratinocytes in culture were washed 3 times with a PBS buffer without glucose then pre-incubated in 1 ml of the same buffer for 30 minutes at 37° C. Subsequently, this solution was discarded and the microsomes placed into the glucose-free PBS buffer containing 3-0-Methyl glucose (MG) and [^3H] 3-0-MG with stirring in a water-bath at 37° C. The capture of 3-0-MG is stopped by addition of 1 ml of cold PBS containing cytochalasine B. The kinetics of incubation was performed between 30 and 120 seconds. The microsomes were further rinsed 2 times with PBS, then dissolved in NaOH (1M) at 4° C., over night. The radioactivity was determined with a scintillation counter. 7.2—Assessment of the Rate of Transport of Macromolecules at the Level of Normal Human Keratinocytes The applied method was that of explants allowing to obtain, from a biopsy of human skin, keratinocytes in primary cultures. The assays were carried out on keratinocytes between the 2nd and the 4th passage in order to ensure a reproductibility between the different experiences. The keratinocytes were divided into multiwell plates (6 wells) at a rate of 10^5 cells per well in 1 ml of culture medium […] supplemented with insulin and hydrocortisone. The cells were incubated in the presence and absence of the investigated product. 7.2.1—Transport of Glucides (Glucose) The assay was carried out in triplicate on normal human keratinocytes in culture. • Charge 1: negative control not receiving any product. • Charge 2: positive control (0.25 mM Phloretin) • Charge 3: treated receiving the investigated product • Charges 6-8: treated with 0.25 mM phloretin and the investigated product (3 concentrations) The treatment of keratinocytes with the BB product in the presence and absence of 0.25 mM phloretin was carried out for 20 minutes at 37° C. The membrane microsomes were separated by differential centrifugation. The same protocol of capture of [3H] 3-0-Methyl-Glucose was adopted for the determination of the rate of transport of glucose. (cf. 6.1.1).

[3] = test system: human keratinocytes in senescence; experiment: Transport of glucids (glucose), human keratinocytes in senescence; type: cell-based; details: for Capture of [^3H]3-O-MG: Phloretin 0.25 mM
Method: The obtained microsomes from human keratinocytes in culture were washed 3 times with a PBS buffer without glucose then pre-incubated in 1 ml of the same buffer for 30 minutes at 37° C. Subsequently, this solution was discarded and the microsomes placed into the glucose-free PBS buffer containing 3-0-Methyl glucose (MG) and [^3H] 3-0-MG with stirring in a water-bath at 37° C. The capture of 3-0-MG is stopped by addition of 1 ml of cold PBS containing cytochalasine B. The kinetics of incubation was performed between 30 and 120 seconds. The microsomes were further rinsed 2 times with PBS, then dissolved in NaOH (1M) at 4° C., over night. The radioactivity was determined with a scintillation counter. 7.3-Assessment of the Rate of Transport of Macromolecules at the Level of Human Keratinocytes in Senescence The senescence is a phenomenon of cellular aging, where the cells are arrested in the phase G1 of the cell cycle and never enter the synthesis phase leading to the cell division. Senescent cells are characterized by their slow metabolism at synthesis and transport of macromolecules levels. The cells in culture deprived of serum stop their growth, but continue to progress through the cell cycle until they reach the phase G1. The applied method allowed to obtain, from a human skin biopsy, primary cultures of keratinocytes. The assays were performed on keratinocytes, between the 8th and the 10th passage, in order to ensure the presence of senescent cells at control cells level. The keratinocytes were seeded in multiwell plates (6 wells) at a rate of 10^5 cells per well in 3 ml of culture medium […] supplemented with EGF, hydrocortisone, insulin and […]. Afterwards they are maintained for 5 days in incubator under CO2. 7.3.1-Transport of Glucids (Glucose) The assay was carried out in triplicate on human keratinocytes in senescence. • Charge 1: negative control not receiving any product. • Charge 2: positive control (0.25 mM Phloretin) • Charge 3: treated receiving the investigated product • Charges 6-8: treated with 0.25 mM phloretin and with the investigated product (3 concentrations) The treatment of keratinocytes with the BB product in the presence and absence of 0.25 mM phloretin was performed for 20 minutes at 37° C. The membrane microsomes were separated by differential centrifugation. The same protocol of capture of [3H] 3-0-Methyl-Glucose was applied to the determination of the rate of transport of glucose (cf. 6.1.1).

[4] = test system: reconstructed CORNEA Skinethic (keratinocytes of the TR 146 line); experiment: Mucous tolerance: cytotoxicity (MTT colour) on reconstructed CORNEA Skinethic; type: cell-based, human; design: key to TOXICITY: NI = not irritant; I = irritant; VI = very irritant; details: for Colour of both cultures: MTT
Method: 1. —Experimental Protocol
Keratinocytes of the TR 146 line, spontaneously transformed, amplified, by cell culture in a defined modified MCDB 153 medium were used.
When cultured on the interface air/liquid in a defined medium, these human keratinocytes form a multilayered epithelium without the cornea layer similar to the human cornea.
The product to be investigated, in this case the BB product according to Example 3, is applied at a rate of 30 μL onto the surface of eight equivalent cultures using a micro-pipette. These cultures are subsequently incubated at 37° C., 5% of CO2, for 10 minutes, 1 hour, 3 hours and 24 hours, at a rate of two cultures by incubation period.
Negative (buffered saline solution) and positive (SDS 0.5% and 1%) controls are prepared sterile and applied in the same way on two cultures, respectively.
These cultures are subsequently incubated at 37° C., 5% of CO2, for 1 hour and 24 hours, at a rate of two cultures by incubation period.
2. —Assessment of the Cellular Viability
The cellular viability is further measured qualitatively after labelling with a vital dye. The MTT system measures the mitochondrial dehydrogenase activity of living cells. The key component is the 3-[4,5-dimethylthiazol-2-yl]-2,5-diphenyl tetrazolium bromide or MTT.
The salt solutions buffered with MTT, in the absence of phenol red, are yellow coloured. The mitochondrial deshydrogenases of living cells cut the tetrazolium cycle, thus inducing formation of purple formazan crystals, insoluble in aqueous solutions.
The crystals formed by the viable cells are trapped in the polycarbonate filters which serve as support to epithelial cultures. The cultures turn to a uniform intense blue/purple colour when they are viable, but remain white/yellow in the case of cell mortality.
The results are compared to negative and positive control substances.
0.15 ml of culture medium containing 10% vol/vol of MTT solution are pipetted under each filter/culture support. After an incubation of 30 min at room temperature, the colour of the different cultures is observed.
Negative control cultures should show an intense blue/purple colour, proof of the viability of mucosa after being in contact for 24 hours.
Positive control cultures should show a white colour, proof of the cellular mortality as from the 1st hour of contact.

## O=C(CCc1ccc(O)cc1)c1c(O)cc(O)cc1O [Phloretin, phloretin]
[1]; 30 s
  Capture of [^3H]3-O-MG: 4 nmol/mg proteins
[1]; 60 s
  Capture of [^3H]3-O-MG: 6 nmol/mg proteins
[1]; 90 s
  Capture of [^3H]3-O-MG: 8 nmol/mg proteins
[1]; 120 s
  Capture of [^3H]3-O-MG: 8 nmol/mg proteins
[1]; phloretin 0.25 mM alone
  rate of transport of glucose (in words): strongly inhibits
[2]; 30 s
  Capture of [^3H]3-O-MG: 6 nmol/mg of proteins
[2]; 60 s
  Capture of [^3H]3-O-MG: 8 nmol/mg of proteins
[2]; 90 s
  Capture of [^3H]3-O-MG: 9 nmol/mg of proteins
[2]; 120 s
  Capture of [^3H]3-O-MG: 10 nmol/mg of proteins
[2]; phloretin 0.25 mM alone
  rate of transport of glucose (in words): strongly inhibits
[3]; 30 s
  Capture of [^3H]3-O-MG: 1 nmol/mg of proteins
[3]; 60 s
  Capture of [^3H]3-O-MG: 3 nmol/mg of proteins
[3]; 90 s
  Capture of [^3H]3-O-MG: 5 nmol/mg of proteins
[3]; 120 s
  Capture of [^3H]3-O-MG: 7 nmol/mg of proteins
[3]; phloretin 0.25 mM alone
  rate of transport of glucose (in words): strongly inhibits

## CCCCCCCCCCCCOS(=O)(=O)[O-].[Na+] [SDS]
[4]; SDS 0.5%
  TOXICITY: I
[4]; SDS 0.5%, 10 min
  Colour of both cultures: blue
[4]; SDS 0.5%, 1 h
  Colour of both cultures: white
[4]; SDS 0.5%, 3 h
  Colour of both cultures: white
[4]; SDS 1%
  TOXICITY: VI
[4]; SDS 1%, 10 min
  Colour of both cultures: white
[4]; SDS 1%, 1 h
  Colour of both cultures: white

From patent US20080089851A1, “Brown Algae Cell Lyophilisate, Method For The Obtention Thereof” (BIOTECHMARINE, priority 2005, published 2008)
